Test results from patent US6340581B1, “Biological production of products from waste gases” (Bioengineering Resources, Inc., priority 1992, dated 2002).
Read-outs that look alike come from different tables or passages of the source.

How the values were obtained:
[1] = Acetic acid distribution coefficient study: solvents for recovering acetic acid from the permeate; type: physicochemical
[2] = Distribution coefficients of mixed solvents; type: physicochemical; details: oleyl alcohol 10 cc plus Cyc or TBP
[3] = aqueous phase after contact with the solvent

| Compound | Equilibrium Aqueous Acetic Acid Concentration [1, 3] [g/L] | Acetic Acid Distribution Coefficients ([1]; solvent vs aqueous phase) | Distribution Coefficients [2] | Acetic Acid Distribution Coefficients [1] | Equilibrium Aqueous Acetic Acid Concentration [1] [g/L] |
| --- | --- | --- | --- | --- | --- |
| CCCCC(CC)CO (centres unmarked) [2-ethyl-1-hexanol] | 3.308 | 0.77 |  |  |  |
| CC1CCCC(O)C1 (centres unmarked) [3-methylcyclohexanol] | 2.110 | 1.26 |  |  |  |
| ClC(Cl)Cl [Chloroform] |  |  |  | 0.09 | 5.128 |
| O=C1CCCCC1 [Cyclohexanone] | 2.702 | 1.66 |  |  |  |
| CCCCCCCCCC [Decane] | 5.968 | 0.08 |  |  |  |
| CCCCOP(=O)(O)OCCCC [Dibutyl phosphate] |  |  |  | 0.18 | 4.615 |
| CCCCCC [Hexane] |  |  |  | 0.0 | 6.559 |

Further lines, with some results ahead:

| Equilibrium Aqueous Acetic Acid Concentration [1, 3] [g/L] | Acetic Acid Distribution Coefficients ([1]; solvent vs aqueous phase) | Distribution Coefficients [2] | Compound | Acetic Acid Distribution Coefficients [1] | Equilibrium Aqueous Acetic Acid Concentration [1] [g/L] |
| --- | --- | --- | --- | --- | --- |
| 4.654 | 0.13 |  | CCCCCCCCCCCC [Dodecane] |  |  |
| 5.787 | 0.15 |  | CCCCCCCCCCCCOC(C)=O [Dodecyl acetate] |  |  |
| 4.550 | 0.41 |  | CCOC(C)=O [Ethyl acetate] |  |  |
| 4.665 | 0.42 |  | CCCC(=O)OCC [Ethyl butyrate] |  |  |
| 5.866 | 1.13 |  | CCCCCCCCCCCCCCCC [Hexadecane] |  |  |
| 4.358 | 0.45 |  | CCCCCCCCO [Octanol] |  |  |
| 5.114 | 0.28 | 0.17 | CCCCCCCC/C=C\CCCCCCCCO [Oleyl alcohol] |  |  |
| 3.785 | 0.31 |  | CCCCCCCCN(CCCCCCCC)CCCCCCCC [Trioctylamine] |  |  |
| 4.528 | 0.40 |  | CCCCCCCCCCCO [Undecyl alcohol] |  |  |
| 3.890 | 0.42 |  | Dexyl alcohol |  |  |
